What was measured:
recombinant human TH = molecular target: T1, recombinant human TH (Homo sapiens, UniProt P07101); assay: TH enzymatic activity assay (fluorescence, 96-well); format: biochemical
T1 construct: For purification of MBP-tagged full-length PAH and TH; made in house; host or cells: E. coli T7 Express (NEB) with pRARE2
Experimental: The TH enzymatic activity assay was performed using a 96-well plate format (Greiner). […] To initiate the reaction, L-Tyr (Fluka) was added (final concentration, 30 μM). The assay contained positive control samples (complete reaction mix, no inhibitor test compound), negative control samples (reaction mix without BH4), and an additional L-Tyr control (reaction mix without BH4, spiked with 25.5 μM or 27 μM L-Tyr) to measure the progression of the enzymatic reaction. All samples were measured in technical triplicates. The TH assay was performed at RT for 30 min. Depletion of the reaction substrate (L-Tyr) was continuously monitored at 240 s intervals by fluorescence measurements (ex.280 nm/em.306 nm) for 12 min using a Tecan Infinite 200 plate reader.
Negative control values (no enzyme or no substrate) were deducted from the positive control (full enzyme activity) and test compound values. Subsequently, the data were normalized (Pos. Ctr. = 100% of the enzyme activity). The results were further analyzed with GraphPad Prism 9 using the nonlinear regression model: log(inhibitor) vs. response−variableslope(fourparameters) which fits the following equation to the data: Y=Bottom+(Top−Bottom)/(1+10^((logIC50−X)×HillSlope))
The IC50 values were calculated from three independent experiments and are given as the mean ± SD.

A3 receptor = test system: A3 receptor; parameters: method as in EMA/508026/2017; conditions: 10 μM; ref EMA/508026/2017; cited from earlier work
human recombinant TPH2 = molecular target: T2, human recombinant TPH2 (Homo sapiens, UniProt Q8IWU9); assay: TPH2 enzymatic activity assay (fluorescence, 96-well); format: biochemical
T2 construct: Full-length human TPH1 and TPH2 (UniProt entries P17752 and Q8IWU9); MBP (N); made in house
T2 sequence (Q8IWU9 1-490): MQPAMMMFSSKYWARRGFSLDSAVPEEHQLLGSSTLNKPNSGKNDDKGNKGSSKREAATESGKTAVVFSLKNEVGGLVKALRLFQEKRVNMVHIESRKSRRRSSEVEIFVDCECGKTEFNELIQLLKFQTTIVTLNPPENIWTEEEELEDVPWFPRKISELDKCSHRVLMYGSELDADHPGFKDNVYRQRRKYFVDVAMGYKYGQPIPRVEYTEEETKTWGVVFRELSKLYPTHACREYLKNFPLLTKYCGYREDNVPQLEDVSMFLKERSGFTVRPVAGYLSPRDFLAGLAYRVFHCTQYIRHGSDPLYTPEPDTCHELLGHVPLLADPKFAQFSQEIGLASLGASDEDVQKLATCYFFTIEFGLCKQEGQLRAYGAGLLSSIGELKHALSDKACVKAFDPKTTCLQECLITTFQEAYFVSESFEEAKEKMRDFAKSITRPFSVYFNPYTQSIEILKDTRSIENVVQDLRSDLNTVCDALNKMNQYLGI

human recombinant TPH1 = molecular target: T3, human recombinant TPH1 (Homo sapiens, UniProt P17752); assay: TPH1 enzymatic activity assay (fluorescence, 96-well); format: biochemical
T3 construct: Full-length human TPH1 and TPH2 (UniProt entries P17752 and Q8IWU9); MBP (N); made in house
T3 sequence (P17752 1-444): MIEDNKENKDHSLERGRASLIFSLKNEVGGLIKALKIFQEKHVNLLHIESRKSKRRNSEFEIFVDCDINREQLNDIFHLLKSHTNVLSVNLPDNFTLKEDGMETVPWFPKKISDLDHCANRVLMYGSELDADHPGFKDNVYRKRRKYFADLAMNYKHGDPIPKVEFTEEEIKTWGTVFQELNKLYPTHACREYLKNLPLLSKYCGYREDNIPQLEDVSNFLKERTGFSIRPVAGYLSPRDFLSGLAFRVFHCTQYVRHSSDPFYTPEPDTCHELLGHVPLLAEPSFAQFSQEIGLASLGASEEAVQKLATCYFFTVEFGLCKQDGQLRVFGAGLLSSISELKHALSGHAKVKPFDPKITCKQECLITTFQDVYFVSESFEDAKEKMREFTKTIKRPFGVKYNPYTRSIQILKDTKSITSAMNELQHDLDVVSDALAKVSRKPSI

5-HT2A receptor = test system: 5-HT2A receptor; parameters: method as in EMA/508026/2017; conditions: 10 μM; ref EMA/508026/2017; cited from earlier work
human recombinant PAH = molecular target: T4, human recombinant PAH (Homo sapiens, UniProt P00439); assay: PAH enzymatic activity assay (fluorescence, 96-well); format: biochemical
T4 construct: expression vectors for full-length human PAH (UniProt entry P00439); made in house; host or cells: E. coli T7 Express (NEB) with pRARE2
T4 sequence (P00439 1-452): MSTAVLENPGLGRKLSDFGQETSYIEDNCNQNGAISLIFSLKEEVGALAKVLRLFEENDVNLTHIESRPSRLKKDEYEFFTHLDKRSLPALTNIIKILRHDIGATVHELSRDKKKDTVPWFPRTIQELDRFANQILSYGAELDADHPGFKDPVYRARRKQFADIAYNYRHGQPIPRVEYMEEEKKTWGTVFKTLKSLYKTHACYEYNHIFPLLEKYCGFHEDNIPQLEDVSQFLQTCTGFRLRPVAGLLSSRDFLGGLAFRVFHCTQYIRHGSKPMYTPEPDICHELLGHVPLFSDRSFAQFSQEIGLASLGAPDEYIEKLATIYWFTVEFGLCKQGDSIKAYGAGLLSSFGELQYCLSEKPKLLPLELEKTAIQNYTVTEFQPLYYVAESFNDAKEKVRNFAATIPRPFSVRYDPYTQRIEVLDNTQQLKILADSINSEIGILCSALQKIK

5-HT1B receptor = test system: 5-HT1B receptor; parameters: method as in EMA/508026/2017; conditions: 10 μM; ref EMA/508026/2017; cited from earlier work
[1] = test system: 75 human receptors, enzymes, and ion channels; parameters: method as in EMA/508026/2017; conditions: ref EMA/508026/2017; cited from earlier work
[2] = 10 nM to 30 μM, 175 μM L-Phe, 10 μM BH4

T1 sequence (P07101 whole entry): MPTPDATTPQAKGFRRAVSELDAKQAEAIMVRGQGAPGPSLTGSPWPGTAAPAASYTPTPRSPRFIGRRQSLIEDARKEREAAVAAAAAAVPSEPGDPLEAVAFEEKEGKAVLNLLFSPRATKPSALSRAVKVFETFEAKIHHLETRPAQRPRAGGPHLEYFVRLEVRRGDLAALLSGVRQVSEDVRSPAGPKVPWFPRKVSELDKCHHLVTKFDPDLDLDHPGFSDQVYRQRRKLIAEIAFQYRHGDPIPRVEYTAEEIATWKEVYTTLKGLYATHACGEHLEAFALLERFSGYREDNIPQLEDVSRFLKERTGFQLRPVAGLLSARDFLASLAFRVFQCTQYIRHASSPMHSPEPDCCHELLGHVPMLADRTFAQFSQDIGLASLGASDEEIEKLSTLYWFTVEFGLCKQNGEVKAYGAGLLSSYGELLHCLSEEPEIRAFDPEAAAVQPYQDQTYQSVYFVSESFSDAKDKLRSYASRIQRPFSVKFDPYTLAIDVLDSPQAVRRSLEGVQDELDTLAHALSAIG

Structure (SMILES): Cc1ccn(-c2cc(Cl)ccc2[C@@H](Oc2cc(-c3ccc(C[C@H](N)C(=O)O)cc3)nc(N)n2)C(F)(F)F)n1 [LP778902, Telotristat]
- Mean TH activity [%] (recombinant human TH; 10 nM): 91.23%
- IC50 (recombinant human TH; 10 nM to 30 μM, 30 μM L-Tyr, 5 μM BH4): 8.11 µM
- Mean TH activity [%] (recombinant human TH; 30 nM): 96.35%
- Mean TH activity [%] (recombinant human TH; 100 nM): 91.73%
- Mean TH activity [%] (recombinant human TH; 300 nM): 96.86%
- Mean TH activity [%] (recombinant human TH; 1 μM): 89.03%
- Mean TH activity [%] (recombinant human TH; 3 μM): 79.57%
- Mean TH activity [%] (recombinant human TH; 10 μM): 43.11%
- Mean TH activity [%] (recombinant human TH; 30 μM): 14.34%
- inhibition at A3 receptor (A3 receptor): more than 50%
- Mean TPH2 activity [%] (human recombinant TPH2; 3 nM): 99.93%
- Mean TPH2 activity [%] (human recombinant TPH2; 10 nM): 100.78%
- Mean TPH2 activity [%] (human recombinant TPH2; 30 nM): 99.88%
- Mean TPH2 activity [%] (human recombinant TPH2; 100 nM): 97.93%
- Mean TPH2 activity [%] (human recombinant TPH2; 300 nM): 92.18%
- Mean TPH2 activity [%] (human recombinant TPH2; 1 μM): 10.61%
- Mean TPH2 activity [%] (human recombinant TPH2; 3 μM): 3.90%
- Mean TPH2 activity [%] (human recombinant TPH2; 10 μM): 3.17%
- Mean TPH1 activity [%] (human recombinant TPH1; 3 nM): 99.75%
- Mean TPH1 activity [%] (human recombinant TPH1; 10 nM): 100.85%
- Mean TPH1 activity [%] (human recombinant TPH1; 30 nM): 101.72%
- Mean TPH1 activity [%] (human recombinant TPH1; 100 nM): 100.00%
- Mean TPH1 activity [%] (human recombinant TPH1; 300 nM): 91.38%
- Mean TPH1 activity [%] (human recombinant TPH1; 1 μM): 12.20%
- Mean TPH1 activity [%] (human recombinant TPH1; 3 μM): 4.78%
- Mean TPH1 activity [%] (human recombinant TPH1; 10 μM): 5.34%
- inhibition at 5-HT2A receptor (5-HT2A receptor): more than 50%
- Mean PAH activity [%] (human recombinant PAH; 10 nM): 99.68%
- IC50 (human recombinant PAH; [2]): 2.69 µM
- Mean PAH activity [%] (human recombinant PAH; 30 nM): 96.34%
- Mean PAH activity [%] (human recombinant PAH; 100 nM): 95.74%
- Mean PAH activity [%] (human recombinant PAH; 300 nM): 92.85%
- Mean PAH activity [%] (human recombinant PAH; 1 μM): 79.01%
- Mean PAH activity [%] (human recombinant PAH; 3 μM): 42.58%
- Mean PAH activity [%] (human recombinant PAH; 10 μM): 18.22%
- Mean PAH activity [%] (human recombinant PAH; 30 μM): 7.18%
- IC50 (human recombinant PAH; supplementary CSV): 2.69 µM
- inhibition at 5-HT1B receptor (5-HT1B receptor): more than 50%

Structure (SMILES): CCOC(=O)[C@@H](N)Cc1ccc(-c2cc(O[C@H](c3ccc(Cl)cc3-n3ccc(C)n3)C(F)(F)F)nc(N)n2)cc1 [LX1606, Telotristat ethyl]
- Mean TH activity [%] (recombinant human TH; 10 nM): 94.16%
- Mean TH activity [%] (recombinant human TH; 30 nM): 93.57%
- Mean TH activity [%] (recombinant human TH; 100 nM): 94.52%
- Mean TH activity [%] (recombinant human TH; 300 nM): 91.31%
- Mean TH activity [%] (recombinant human TH; 1 μM): 96.27%
- Mean TH activity [%] (recombinant human TH; 3 μM): 96.83%
- Mean TH activity [%] (recombinant human TH; 10 μM): 87.53%
- Mean TH activity [%] (recombinant human TH; 30 μM): 71.72%
- reduction of TH activity compared to the positive control (recombinant human TH; two highest concentrations (10 and 30 μM)): ≤ 30%
- number of 75 receptors with over 50% of the activity inhibited [1]: 16
- IC50 (human recombinant TPH1; 3 nM to 10 μM, 15 μM L-Trp, 20 μM BH4): 1.44 µM
- Mean PAH activity [%] (human recombinant PAH; 10 nM): 96.86%
- IC50 (human recombinant PAH; [2]): 7.91 µM
- Mean PAH activity [%] (human recombinant PAH; 30 nM): 97.35%
- Mean PAH activity [%] (human recombinant PAH; 300 nM): 94.55%
- Mean PAH activity [%] (human recombinant PAH; 1 μM): 91.16%
- Mean PAH activity [%] (human recombinant PAH; 3 μM): 64.20%
- Mean PAH activity [%] (human recombinant PAH; 10 μM): 37.02%
- Mean PAH activity [%] (human recombinant PAH; 30 μM): 33.74%
- PAH activity, not reduced below (human recombinant PAH; highest tested concentration (30 μM)): ≥ 30%
- IC50 (human recombinant PAH; supplementary CSV): 7.91 µM

— paper PMC12171880, “Selectivity and Safety Characterization of a Xanthine–Imidazothiazole Lead Structure: a Novel Tryptophan Hydroxylase Inhibitor of Peripheral Serotonin Synthesis” (ACS Pharmacology & Translational Science, 2025)
